Values quoted from earlier work, collected in patent publication US20240180994A1 (priority 2021, published 2024).

Legend:
[1] = biological target: SARS-CoV-2 protease 3CL pro (Severe acute respiratory syndrome coronavirus 2, UniProt P0DTD1)
[2] = system: HIV-luc/SARS pseudotyped virus; conditions: read-out: effective dose at 50% of inhibition (EC50%)
cathepsin L = cathepsin L (Homo sapiens, UniProt P07711)
[3] = biological target: SARS-CoV-2 membrane (M) protein (Severe acute respiratory syndrome coronavirus 2, UniProt P0DTC5); conditions: modeling studies
TNF-α, IL-6 and IL-1β = conditions: daily oral 10-30 mg/kg for 4 weeks, aged rats
TNF-α = conditions: mouse, in vivo
[4] = system: TNF-α, IL-1β, MAPKs (p38); conditions: 100 mg/kg, spinal cord injury models

O=c1c(O)c(-c2ccc(O)cc2)oc2cc(O)cc(O)c12 [Kaempferol]
IC50 [1]: 116 µM

O=c1cc(-c2ccc(O)c(O)c2)oc2cc(O)cc(O)c12 [Luteolin]
EC50 [2]: 9.02 µM
EC50 (wild-type SARS-CoV; read-out: EC50% inhibition of cytopathic effect, wild-type SARS-CoV, MTT assay): 10.6 µM
EC50 values times less than cytotoxicity on the cells in vitro (wild-type SARS-CoV; relates to both EC50 values of luteolin): 15 times

O=c1c(O)c(-c2ccc(O)c(O)c2)oc2cc(O)cc(O)c12 [Quercetin]
cathepsin L inhibition (cathepsin L): inhibit cathepsin L

O=C(O)/C=C/c1ccc(O)c(O)c1 [caffeic acid]
affinity with M protein [3]: higher affinity with the M protein

CC(/C=C/C=C(\C)C(=O)O[C@@H]1O[C@H](CO[C@@H]2O[C@H](CO)[C@@H](O)[C@H](O)[C@H]2O)[C@@H](O)[C@H](O)[C@H]1O)=C\C=C\C=C(C)\C=C\C=C(/C)C(=O)O[C@@H]1O[C@H](CO[C@@H]2O[C@H](CO)[C@@H](O)[C@H](O)[C@H]2O)[C@@H](O)[C@H](O)[C@H]1O [crocin]
pro-inflammatory cytokines in renal tissue and serum (TNF-α, IL-6 and IL-1β): significantly reduced pro-inflammatory cytokines, TNF-α, IL-6 and IL-1β

COc1cc(/C=C/C(=O)O)ccc1O [ferulic acid]
affinity with M protein [3]: higher affinity with the M protein

COc1ccc([C@@H]2CC(=O)c3c(O)cc(O[C@@H]4O[C@H](CO[C@@H]5O[C@@H](C)[C@H](O)[C@@H](O)[C@H]5O)[C@@H](O)[C@H](O)[C@H]4O)cc3O2)cc1O [hesperidin]
TNF-α in LPS-treated mice (TNF-α): decease TNF-α in mice treated with LPS

CC1=C(C=O)C(C)(C)CC=C1 [safranal]
expression of inflammatory cytokines [4]: decreased the expression of the inflammatory cytokines TNF-α, IL-1β
